Consider 24 molecules from patent publication US10508109B2 (priority 2015, dated 2019).

In experiment [1] the target is SUV39H2 (Homo sapiens (Human), UniProt Q9H5I1). Kind of experiment: biochemical. The note with it: 3H-SAM 100 nM, H3 Histone Peptide 350 nM, room temperature 3 hours. It is filed as biochemical. In outline: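 Human SUV39H2, at a lot-specific concentration set by specific activity, was incubated with test compounds for 3 h at room temperature, then stopped with streptavidin SPA beads (50 μg/well final).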

Experiment [2] has as its system A549. Kind of experiment: Cell-based assay, anti-proliferative activity (Cell Counting Kit-8, 72 hours). The note with it: Homo sapiens, read-out: A549 IC50. In outline:
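Cells were seeded in 96-well plates and exposed to candidate inhibitors. Cellular growth was then determined with the colorimetric kit, and IC50 values were calculated from the growth data.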
For orientation: Tetrazolium assays rely on reduction of a dye to a coloured formazan, in cell work by metabolically active cells.

[3] abbreviates: A549 cells, 72 hours exposure, Cell Counting Kit-8.

Each structure is given as a SMILES string. Counter-ions that a name gives are not always drawn. Like-named read-outs stand apart in the source and are kept apart here.

Chain of SUV39H2 (Q9H5I1 whole entry): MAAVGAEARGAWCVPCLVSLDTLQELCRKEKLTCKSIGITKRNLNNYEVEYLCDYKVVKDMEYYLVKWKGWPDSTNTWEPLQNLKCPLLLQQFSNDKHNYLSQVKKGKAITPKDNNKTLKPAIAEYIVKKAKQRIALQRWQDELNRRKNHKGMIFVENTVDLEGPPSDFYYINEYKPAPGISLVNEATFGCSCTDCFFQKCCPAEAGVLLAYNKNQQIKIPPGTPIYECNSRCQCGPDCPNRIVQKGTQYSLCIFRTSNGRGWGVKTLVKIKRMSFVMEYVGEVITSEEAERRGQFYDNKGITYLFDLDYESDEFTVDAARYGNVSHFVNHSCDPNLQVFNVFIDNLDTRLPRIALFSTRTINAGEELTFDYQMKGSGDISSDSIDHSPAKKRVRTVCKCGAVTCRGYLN

On to `COc1cc(OC)c(-c2cn3ccc(N4CCN(c5cccc(N6CCN(C)CC6)n5)CC4)cc3n2)cc1Cl` [Example 381, 2-(5-chloro-2,4-dimethoxyphenyl)-7-(4-(6-(4-methylpiperazin-1-yl)pyridin-2-yl)piperazin-1-yl)imidazo[1,2-a]pyridine], for which the figures for the IC50 in experiment [1] and in experiment [2] (setting [3]) were 43.1 nM and 770 nM, respectively.

In the case of `COc1cc(OC)c(-c2cn3ccc(N4CCC[C@H](NCC5CCN(C(=O)OC(C)(C)C)CC5)C4)cc3n2)cc1Cl` [Example 454, (S)-tert-butyl 4-(((1-(2-(5-chloro-2,4-dimethoxyphenyl)imidazo[1,2-a]pyridin-7-yl)piperidin-3-yl)amino)methyl)piperidine-1-carboxylate], the results for the IC50 in experiment [1] and in experiment [2] (setting [3]) were 27 nM and 760 nM, respectively.

As for `COc1cc(OC)c(-c2cn3ccc(N4CCN(S(C)(=O)=O)C(C)C4)cc3n2)cc1Cl` (stereo not drawn) [Example 312, 2-(5-chloro-2,4-dimethoxyphenyl)-7-(3-methyl-4-(methylsulfonyl)piperazin-1-yl)imidazo[1,2-a]pyridine], the IC50 in experiment [1] turned out to be 3.81 nM; in experiment [2] (setting [3]), 2500 nM.

Regarding `COc1cc(OC)c(-c2cn3ccc(N[C@H]4CC[C@@H](NC(=O)c5ccccc5O)CC4)cc3n2)cc1Cl` [Example 392, N-(cis-4-((2-(5-chloro-2,4-dimethoxyphenyl)imidazo[1,2-a]pyridin-7-yl)amino)cyclohexyl)-2-hydroxybenzamide trifluoroacetate], the IC50 was found to be 52.7 nM in experiment [1] and 680 nM in experiment [2] (setting [3]).

On to `COc1cc(OC)c(-c2cn3ccc(N4CC[C@H](NC(C)C5CCN(C(=O)OC(C)(C)C)CC5)C4)cc3n2)cc1Cl` (stereo partly drawn) [Example 425, tert-butyl 4-(1-(((S)-1-(2-(5-chloro-2,4-dimethoxyphenyl)imidazo[1,2-a]pyridine-7-yl)pyrrolidin-3-yl)amino)ethyl)piperidine-1-carboxylate], for which the half-inhibitory concentration (IC50) was found to be 57.9 nM in experiment [1] and 890 nM in experiment [2] (setting [3]).

Take `COc1cc(OC)c(-c2cn3ccc(N[C@H]4CC[C@@H](NCc5ccc([N+](=O)[O-])cc5)CC4)cc3n2)cc1Cl` [Example 411, cis-N^1-(2-(5-chloro-2,4-dimethoxyphenyl)imidazo[1,2-a]pyridin-7-yl)-N^4-(4-nitrobenzyl)cyclohexane-1,4-diamine]: the figures for the IC50 in experiment [1] and in experiment [2] (setting [3]) were 26.3 nM and 370 nM, respectively.

Take `COc1cc(OC)c(-c2cn3ccc(N4CCN(S(C)(=O)=O)CC4C)cc3n2)cc1Cl` (stereo not drawn) [Example 311, 2-(5-chloro-2,4-dimethoxyphenyl)-7-(2-methyl-4-(methylsulfonyl)piperazin-1-yl)imidazo[1,2-a]pyridine]: the IC50 worked out at 4.94 nM in experiment [1] and 3800 nM in experiment [2] (setting [3]).

As to `COc1cc(OC)c(-c2cn3cnc(N4CCN(S(=O)(=O)C5CC5)CC4)cc3n2)cc1Cl` [Example 390, 2-(5-chloro-2,4-dimethoxyphenyl)-7-(4-(cyclopropylsulfonyl)piperazin-1-yl)imidazo[1,2-c]pyrimidine], the IC50 in experiment [1] worked out at 99.6 nM; in experiment [2] (setting [3]), 390 nM.

In the case of `COc1cc(OC)c(-c2cn3ccc(N4CCN(c5ccnc(NCCCO)n5)CC4)cc3n2)cc1Cl` [Example 395, 3-((4-(4-(2-(5-chloro-2,4-dimethoxyphenyl)imidazo[1,2-a]pyridine-7-yl)piperazin-1-yl)pyrimidin-2-yl)amino)propan-1-ol], the IC50 came to 14 nM in experiment [1] and 770 nM in experiment [2] (setting [3]).

Turning to `COc1cc(OC)c(-c2cn3ccc(N4CCC(C(=O)NC5CCCCC5)CC4)cc3n2)cc1Cl` [Example 453, 1-(2-(5-chloro-2,4-dimethoxyphenyl)imidazo[1,2-a]pyridin-7-yl)-N-cyclohexylpiperidine-4-carboxamide], the IC50 in experiment [1] was 10.5 nM; in experiment [2] (setting [3]), 540 nM.

In the case of `COc1cc(OC)c(-c2cn3ccc(N[C@H]4CC[C@H](NCc5cccc(C)c5)CC4)cc3n2)cc1Cl` [Example 415, (1r,4r)-N^1-(2-(5-chloro-2,4-dimethoxyphenyl)imidazo[1,2-a]pyridin-7-yl)-N^4-(3-methylbenzyl)cyclohexane-1,4-diamine], the results for the IC50 in experiment [1] and in experiment [2] (setting [3]) were 98 nM and 620 nM, respectively.

Regarding `COc1cc(OC)c(-c2cn3ccc(N[C@H]4CC[C@@H](NCC5CCN(C(=O)OC(C)(C)C)CC5)CC4)cc3n2)cc1Cl` [Example 423, tert-butyl 4-(((cis-4-((2-(5-chloro-2,4-dimethoxyphenyl)imidazo[1,2-a]pyridin-7-yl)amino)cyclohexyl)amino)methyl)piperidine-1-carboxylate], the IC50 was found to be 26.9 nM in experiment [1] and 590 nM in experiment [2] (setting [3]).

In the case of `COc1cc(OC)c(-c2cn3ccc(N4CCN(c5nccc(N)c5F)CC4)cc3n2)cc1Cl` [Example 365, 2-(4-(2-(5-chloro-2,4-dimethoxyphenyl)imidazo[1,2-a]pyridin-7-yl)piperazin-1-yl)-3-fluoropyridin-4-amine formate], the IC50 in experiment [1] worked out at 29.7 nM; in experiment [2] (A549, 72 h) it was 630 nM.

Regarding `COc1cc(OC)c(-c2cn3ccc(N4CCN(c5cc(N6CCCC6)nc(N)n5)CC4)cc3n2)cc1Cl` [Example 385, 4-(4-(2-(5-chloro-2,4-dimethoxyphenyl)imidazo[1,2-a]pyridin-7-yl)piperazin-1-yl)-6-(pyrrolidin-1-yl)pyrimidin-2-amine], the IC50 in experiment [1] came out at 38 nM; in experiment [2] (setting [3]), 660 nM.

For `COc1cc(OC)c(-c2cn3ccc(N4CCN(c5nccc(N6CCC(N)C6)n5)CC4)cc3n2)cc1Cl` (stereo not drawn) [Example 405, 1-(2-(4-(2-(5-chloro-2,4-dimethoxyphenyl)imidazo[1,2-a]pyridin-7-yl)piperazin-1-yl)pyrimidin-4-yl)pyrrolidin-3-amine], the IC50 in experiment [1] turned out to be 15.3 nM; in experiment [2] (setting [3]), 690 nM.

As for `CNC1CCN(c2cnc(N3CCN(c4ccn5cc(-c6cc(Cl)c(OC)cc6OC)nc5c4)CC3)nc2)CC1` [Example 458, 1-(2-(4-(2-(5-chloro-2,4-dimethoxyphenyl)imidazo[1,2-a]pyridin-7-yl)piperazin-1-yl)pyrimidin-5-yl)-N-methylpiperidin-4-amine], the IC50 in experiment [1] stood at 17.5 nM; in experiment [2] (setting [3]) it was 420 nM.

Turning to `COc1cc(OC)c(-c2cn3ccc(N[C@H]4CC[C@H](NCc5cccc(C#N)c5)CC4)cc3n2)cc1Cl` [Example 397, 3-((((1r,4r)-4-((2-(5-chloro-2,4-dimethoxyphenyl)imidazo[1,2-a]pyridin-7-yl)amino)cyclohexyl)amino)methyl)benzonitrile], the concentration for half-maximal inhibition (IC50) in experiment [1] was 64.6 nM; in experiment [2] (setting [3]), 700 nM.

As to `COc1cc(OC)c(-c2cn3ccc(N4CCN(c5cnc(N6CCC(N)C6)nc5)CC4)cc3n2)cc1Cl` (stereo not drawn) [Example 378, 1-(5-(4-(2-(5-chloro-2,4-dimethoxyphenyl)imidazo[1,2-a]pyridin-7-yl)piperazin-1-yl)pyrimidin-2-yl)pyrrolidin-3-amine dihydrochloride], the IC50 is 22.8 nM in experiment [1] and 680 nM in experiment [2] (A549, 72 h).

With `CNC1CCN(c2cc(N3CCN(c4ccn5cc(-c6cc(Cl)c(OC)cc6OC)nc5c4)CC3)ncn2)C1` (stereo not drawn) [Example 424, 1-(6-(4-(2-(5-chloro-2,4-dimethoxyphenyl)imidazo[1,2-a]pyridin-7-yl)piperazin-1-yl)pyrimidin-4-yl)-N-methylpyrrolidin-3-amine], the IC50 worked out at 11.4 nM in experiment [1] and 700 nM in experiment [2] (setting [3]).

Take `COc1cc(OC)c(-c2cn3ccc(N4CCN(c5cnc(N6CCN(S(=O)(=O)C7CC7)CC6)nc5)CC4)cc3n2)cc1Cl` [Example 369, 2-(5-chloro-2,4-dimethoxyphenyl)-7-(4-(2-(4-(cyclopropylsulfonyl)piperazin-1-yl)pyrimidin-5-yl)piperazin-1-yl)imidazo[1,2-a]pyridine 2,2,2-trifluoroacetate]: the IC50 in experiment [1] amounted to 57.2 nM; in experiment [2] (setting [3]) it was 630 nM.

As to `COc1cc(OC)c(-c2cn3ccc(N4CCN(C(C)=O)C(C)C4)cc3n2)cc1Cl` (stereo not drawn) [Example 309, 1-(4-(2-(5-chloro-2,4-dimethoxyphenyl)imidazo[1,2-a]pyridin-7-yl)-2-methylpiperazin-1-yl)ethanone], the figures for the half-inhibitory concentration (IC50) in experiment [1] and in experiment [2] (setting [3]) were 1.97 nM and 2100 nM, respectively.

With `COc1cc(OC)c(-c2cn3ccc(N[C@H]4CC[C@H](Nc5cncnc5)CC4)cc3n2)cc1Cl` [Example 337, (1r,4r)-N^1-(2-(5-chloro-2,4-dimethoxyphenyl)imidazo[1,2-a]pyridin-7-yl)-N^4-(pyrimidin-5-yl)cyclohexane-1,4-diamine], the IC50 in experiment [1] stood at 79.9 nM; in experiment [2] (setting [3]), 830 nM.

As for `COc1cc(OC)c(-c2cn3ccc(N4CCN(c5ccnc(C#N)c5)CC4)cc3n2)cc1Cl` [Example 330, 4-(4-(2-(5-chloro-2,4-dimethoxyphenyl)imidazo[1,2-a]pyridin-7-yl)piperazin-1-yl)picolinonitrile], the IC50 in experiment [1] turned out to be 98 nM; in experiment [2] (setting [3]), 560 nM.

With `COc1cc(OC)c(-c2cn3ccc(N4CCN(c5cnc(N6CCOCC6)nc5)CC4)cc3n2)cc1Cl` [Example 335, 4-(5-(4-(2-(5-chloro-2,4-dimethoxyphenyl)imidazo[1,2-a]pyridin-7-yl)piperazin-1-yl)pyrimidin-2-yl)morpholine], the IC50 worked out at 68.5 nM in experiment [1] and 690 nM in experiment [2] (setting [3]).

Usually IC50 stands for the concentration that gives 50% inhibition.
